Molecular target: Cyclin-dependent kinase 2 (Homo sapiens) (UniProt P24941)

Row | SMILES | cKi [nM]
1 | CCN1CCC(CC(=O)Nc2n[nH]c3nnc(-c4cccc(F)c4F)cc23)CC1 | 540
2 | O=C(Nc1n[nH]c2nnc(-c3cccnc3)cc12)C1CC1 | 5

The next lines start with the values.

Row | cKi [nM] | SMILES
3 | 450 | CCN1CCC(C(=O)Nc2n[nH]c3nnc(-c4cccc(F)c4F)cc23)CC1
4 | 1700 | CN(C)CCCC(=O)Nc1n[nH]c2nnc(-c3ccccc3)cc12
5 | 5 | O=C(Nc1n[nH]c2nnc(-c3cccc(F)c3F)cc12)C1CCCC1
